Experimental data published in paper PMC11784145, “Efficacy and in vitro pharmacological assessment of novel N-hydroxypyridinediones as hepatitis B virus ribonuclease H inhibitors” (Antimicrobial Agents and Chemotherapy, 2024).

Columns and labels:
[1] = system: HBV replication (HBV plus-polarity DNA strand); assay: HBV replication inhibition, strand preferential qPCR in hepDES19 cells; assay type: cell-based, hepatitis B virus; conditions: for EC50: 72 h exposure, HBV plus-polarity strand suppression, highest concentration tested 100 µM, mean ± SD, read-out: HepDES19 EC50
Method: HBV replication inhibition was measured in hepDES19 cells following 72 h compound exposure without compound replenishment. EC50 values were determined by HBV plus-polarity strand suppression using a strand preferential qPCR assay, as described previously ([28]). Three or more replicate values were obtained on different days.

[2] = Parallel artificial membrane permeability assay (PAMPA); assay type: in vitro ADME
Method: Compound Papp values were determined by normalizing the experimental compound absorbance to the compounds’ absorbances at equilibrium, membrane porosity, buffer volume, and time (s). Two or more replicate assays were obtained on separate days for each pH.

[3] = Solubility limit, turbidimetric assay; assay type: physicochemical; conditions: upper limit 200 µM
Method: Solubility limits were determined by a turbidimetric assay, as described ([27]), with the solubility limit being defined as the compound concentration where light scattering began to rise. Two or more replicate assays were performed for each compound at each pH on different days.

Microsome stability = assay type: in vitro ADME, human; conditions: human, microsomes
Method: Human liver microsomes (gender pooled, 50 individuals) were purchased from BioIVT and stored at −80°C until use. […] Reactions were initiated by addition of 1.2 mM NADPH. […] Microsomal proteins were pelleted at 4,000 × g and the supernatant was analyzed via LCMS/MS. […] The ln percent remaining values were plotted against time, the negative slope was taken (k), and compound half-life (t1/2) was determined using ln2/k. Intrinsic clearance (Clint [µL/min/mg]) was calculated by (V × ln2)/t1/2, where V is the incubation volume (µL) divided by the protein concentration in the reaction (mg) ([31]).

CYP3A4 = target: T1, CYP3A4 (Homo sapiens, UniProt P08684); assay: Cytochrome P450 inhibition, Vivid 3A4 DBOMF Green kit; assay type: in vitro ADME; conditions: 10 µM compound
T1 construct: purchased Thermo Fisher Vivid 3A4 DBOMF Green
T1 sequence (P08684 whole entry): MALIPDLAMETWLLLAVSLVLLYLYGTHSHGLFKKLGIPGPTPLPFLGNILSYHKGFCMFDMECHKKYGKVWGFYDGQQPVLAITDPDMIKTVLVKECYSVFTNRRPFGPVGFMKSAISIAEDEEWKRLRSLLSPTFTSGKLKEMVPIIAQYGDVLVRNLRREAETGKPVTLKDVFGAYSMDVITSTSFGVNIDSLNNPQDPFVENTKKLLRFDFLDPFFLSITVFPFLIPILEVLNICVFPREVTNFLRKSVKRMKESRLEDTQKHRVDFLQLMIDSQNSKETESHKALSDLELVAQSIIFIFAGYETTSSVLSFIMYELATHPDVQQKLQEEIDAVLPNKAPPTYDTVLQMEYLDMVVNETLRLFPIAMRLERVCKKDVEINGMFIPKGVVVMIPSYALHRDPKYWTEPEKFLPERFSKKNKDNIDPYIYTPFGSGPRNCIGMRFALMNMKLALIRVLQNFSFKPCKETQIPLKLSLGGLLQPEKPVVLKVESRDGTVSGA
Method: (§1) Compound inhibition of Cytochrome P (CYP) 3A4, 2C9, and 2D6 was determined using Vivid CYP450 screening kits (Thermo Fisher) according to the manufacturer’s instructions, as described previously ([27]). The kits employed were: Vivid 3A4 DBOMF Green, 2C9 BOMF Green, and 2D6 EOMCC Blue. Reactions were initiated by addition of the fluorophore-conjugated substrates with Vivid NADP^+ and were conducted at 37°C using either a Biotek Synergy HTX multi-mode plate reader with 485/20 nm excitation and 520/20 nm emission filters (green-fluorescent substrate), or a Tecan Spark plate reader with monochromator settings at 415/20 nm excitation and 460/20 nm emission (blue-fluorescent substrate) defined by the Center Wavelength/band-pass values. Substrate cleavage was detected every 60 s.
Compounds were initially screened against each enzyme at 10 µM and maximum rates of fluorescence in RFU were calculated using the Biotek Gen5 v3.11 software. Percent inhibition of experimental compound reactions was normalized to the rate to DMSO vehicle reactions. Positive controls used were: CYP3A4—ketoconazole (Sigma Aldrich), CYP2C9—sulfaphenazole (Cayman Chemical), and CYP2D6—quinidine (Fisher Scientific). […] IC50 values were determined using the four-parameter log[inhibitor] versus response algorithm in GraphPad Prism. […]

HepDES19 cells = conditions: read-out: HepDES19 CC50; 72 h, MTS; highest concentration tested 100 µM; mean ± SD
plasma proteins = assay: Plasma protein binding, rapid equilibrium dialysis; assay type: in vitro ADME, bovine; conditions: 10 µM compound, DMEM-F12 with 10% FBS (0.25 mg/mL BSA), 4 h, 37°C
Method: Plasma protein binding was performed using the Pierce rapid equilibrium dialysis device (Thermo Fisher) per the manufacturer’s instructions, as described ([27]). Briefly, the sample wells contained DMEM-F12 supplemented with 10% FBS spiked with 10 µM compound, and the buffer wells contained phosphate-buffered saline (PBS). The plate was incubated for 4 h at 37°C with shaking, after which 50 µL was retrieved from the buffer and sample wells and added to ice-cold acetonitrile and the internal standard described above. Samples were matrix-matched with PBS supplemented with 10% FBS or PBS alone, respectively, and centrifuged at 4,000 × g for 5 min to pellet plasma proteins. The supernatants were analyzed by LCMS/MS and percent compound bound was determined, as described previously ([27]).

CYP2D6 = target: T2, CYP2D6 (Homo sapiens, UniProt P10635); assay: Cytochrome P450 inhibition, Vivid 2D6 EOMCC Blue kit; assay type: in vitro ADME; conditions: dose-response 50 µM to 3 nM; mean ± SD
T2 construct: purchased Thermo Fisher Vivid 2D6 EOMCC Blue
T2 sequence (P10635 whole entry): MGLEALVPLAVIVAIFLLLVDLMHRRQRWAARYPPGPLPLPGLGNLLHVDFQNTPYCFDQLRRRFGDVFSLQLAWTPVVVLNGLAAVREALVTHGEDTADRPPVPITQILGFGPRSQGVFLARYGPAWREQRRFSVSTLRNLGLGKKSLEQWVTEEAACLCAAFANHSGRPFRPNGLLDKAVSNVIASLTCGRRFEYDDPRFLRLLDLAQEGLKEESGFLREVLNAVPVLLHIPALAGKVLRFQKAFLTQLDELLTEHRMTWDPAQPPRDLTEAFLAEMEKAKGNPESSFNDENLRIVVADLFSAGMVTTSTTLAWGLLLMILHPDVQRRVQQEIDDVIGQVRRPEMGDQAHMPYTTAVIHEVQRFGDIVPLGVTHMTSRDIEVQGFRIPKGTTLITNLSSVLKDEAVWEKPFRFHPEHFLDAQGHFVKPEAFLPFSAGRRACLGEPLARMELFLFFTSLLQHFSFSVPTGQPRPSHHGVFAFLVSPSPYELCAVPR
Method: as §1
Compounds were initially screened against each enzyme at 10 µM and maximum rates of fluorescence in RFU were calculated using the Biotek Gen5 v3.11 software. Percent inhibition of experimental compound reactions was normalized to the rate to DMSO vehicle reactions. Positive controls used were: CYP3A4—ketoconazole (Sigma Aldrich), CYP2C9—sulfaphenazole (Cayman Chemical), and CYP2D6—quinidine (Fisher Scientific). Dose-response curves were generated for compounds that inhibited an enzyme by ≥50% using titrated concentrations of compound (50 µM to 3 nM) or 1% DMSO. IC50 values were determined using the four-parameter log[inhibitor] versus response algorithm in GraphPad Prism. Qualitative screens and dose-response curves were each performed in triplicate on different days.

[4] = pH 5 (fed simulated intestinal fluid)
[5] = pH 6.5 (fasted simulated intestinal fluid)

Row | SMILES | HepDES19 SI (CC50/EC50) [1] | EC50 [1] [µM] | Interpretation (PAMPA Papp) ([2]; FeSSIF pH 5) | Papp 1 (PAMPA) ([2]; FeSSIF pH 5, replicate 1) [×10⁻⁶ cm/s] | Papp 2 (PAMPA) ([2]; FeSSIF pH 5, replicate 2) [×10⁻⁶ cm/s] | Papp 3 (PAMPA) ([2]; FeSSIF pH 5, replicate 3) [×10⁻⁶ cm/s] | Avg Papp (PAMPA) ([2]; pH 7.4) [×10⁻⁶ cm/s] | Interpretation (PAMPA Papp) ([2]; pH 7.4) | Papp 1 (PAMPA) ([2]; pH 7.4, replicate 1) [×10⁻⁶ cm/s] | Papp 2 (PAMPA) ([2]; pH 7.4, replicate 2) [×10⁻⁶ cm/s] | Average Sol (solubility limit) [3, 4] [µM] | Sol 1 (solubility limit) ([3]; pH 5, replicate 1) [µM] | Sol 2 (solubility limit) ([3]; pH 5, replicate 2) [µM] | Average Sol (solubility limit) [3, 5] [µM] | Sol 1 (solubility limit) ([3]; pH 6.5, replicate 1) [µM] | Sol 2 (solubility limit) ([3]; pH 6.5, replicate 2) [µM] | Average Sol (solubility limit) ([3]; pH 7.4 (DMEM-F12 with 10% FBS)) [µM] | Sol 1 (solubility limit) ([3]; pH 7.4, replicate 1) [µM] | Sol 2 (solubility limit) ([3]; pH 7.4, replicate 2) [µM] | CC50 (HepDES19 cells) [µM] | also measured
1 | CC(=NOCc1ccc(OCc2ccc(C(C)(C)C)cc2)cc1)c1c(C)cc(=O)n(O)c1O [Compound 1808] | 6.24 | 6 ± 0.17 | H (H: Papp > 1*10-6) | 32.2 | 9.19 | 81.4 | 2.97 | H (H: Papp > 1*10-6) | 3.7 | 2.6 | > 200 | > 200 | > 200 | > 200 | > 200 | > 200 | 100 | 100 | 100 | 38.2 ± 10.2 | Papp 4 (PAMPA) ([2]; FeSSIF pH 5, replicate 4): 95.8 ×10⁻⁶ cm/s; Papp 3 (PAMPA) ([2]; pH 7.4, replicate 3): 2.6 ×10⁻⁶ cm/s; Clearance (intrinsic clearance, Clint) (Microsome stability): 10.1 µL/min/mg; Half-life (Microsome stability): >30 min; Percent inhibition of CYP3A4 (CYP3A4): ~ 42%
2 | Nc1ccn([C@@H]2CS[C@H](CO)O2)c(=O)n1 [Lamivudine, lamivudine, reference compound] | – | – | – | – | – | – | – | – | – | – | – | – | – | – | – | – | – | – | – | – | Percent bound (plasma proteins): 9.70 ± 11.3%; Percent bound (plasma proteins; listed as lamivudine): 10%
3 | CC(=NOCc1cccc(Br)c1)c1c(C)cc(=O)n(O)c1O [Compound 1621] | 192 | 0.52 ± 0.33 | H (H: Papp > 1*10-6) | 31.7 | 20.9 | – | 4.53 | H (H: Papp > 1*10-6) | 0.49 | 4.47 | > 200 | > 200 | > 200 | > 200 | > 200 | > 200 | > 200 | > 200 | > 200 | 78.5 ± 32.4 | IC50 (CYP2D6): 19.5 µM; Avg Papp (PAMPA) ([2]; FeSSIF pH 5): 26.3 ×10⁻⁶ cm/s; Papp 3 (PAMPA) ([2]; pH 7.4, replicate 3): 10.6 ×10⁻⁶ cm/s; Papp 4 (PAMPA) ([2]; pH 7.4, replicate 4): 0.488 ×10⁻⁶ cm/s; Papp 5 (PAMPA) ([2]; pH 7.4, replicate 5): 6.7 ×10⁻⁶ cm/s; Papp 6 (PAMPA) ([2]; pH 7.4, replicate 6): 4.44 ×10⁻⁶ cm/s
4 | CC(=NOCc1cccc(Cl)c1)c1c(C)cc(=O)n(O)c1O [Compound 1719] | 34.5 | 1.35 ± 1.03 | H (H: Papp > 1*10-6) | 48.6 | 78.8 | 90.3 | 2.9 | H (H: Papp > 1*10-6) | 2.82 | 2.99 | 150 | 100 | > 200 | > 200 | > 200 | > 200 | > 200 | > 200 | > 200 | 56.9 ± 31.1 | IC50 (CYP2D6): 11.2 ± 3.79 µM; Avg Papp (PAMPA) ([2]; FeSSIF pH 5): 72.6 ×10⁻⁶ cm/s
